Assay results taken from article PMC11408249, “Non-invasive in vivo imaging of changes in Collagen III turnover in myocardial fibrosis” (npj Imaging, 2024).
Marks after values point to notes of the source that are not given here. Residues, ends and D or L forms follow the SMILES beside them. *: point of attachment. DOTA = O=C(O)CN1CCN(CC(=O)O)CCN(CC(=O)*)CCN(CC(=O)O)CC1

Assays:
COL3 [1] = target: T1, COL3 (Mus musculus, UniProt P08121); test: Molecular CMR of COL3 in a murine model of myocardial infarction; assay type: in vivo, mice; details: control agents, i.v. 0.2 mmol/kg, 30 minutes post-injection, n = 2–3 per group
T1 construct: from tissue; host or cells: infarcted left-ventricular myocardium of female CD1 mice, in vivo
T1 sequence (P08121 155-1219 limits assumed): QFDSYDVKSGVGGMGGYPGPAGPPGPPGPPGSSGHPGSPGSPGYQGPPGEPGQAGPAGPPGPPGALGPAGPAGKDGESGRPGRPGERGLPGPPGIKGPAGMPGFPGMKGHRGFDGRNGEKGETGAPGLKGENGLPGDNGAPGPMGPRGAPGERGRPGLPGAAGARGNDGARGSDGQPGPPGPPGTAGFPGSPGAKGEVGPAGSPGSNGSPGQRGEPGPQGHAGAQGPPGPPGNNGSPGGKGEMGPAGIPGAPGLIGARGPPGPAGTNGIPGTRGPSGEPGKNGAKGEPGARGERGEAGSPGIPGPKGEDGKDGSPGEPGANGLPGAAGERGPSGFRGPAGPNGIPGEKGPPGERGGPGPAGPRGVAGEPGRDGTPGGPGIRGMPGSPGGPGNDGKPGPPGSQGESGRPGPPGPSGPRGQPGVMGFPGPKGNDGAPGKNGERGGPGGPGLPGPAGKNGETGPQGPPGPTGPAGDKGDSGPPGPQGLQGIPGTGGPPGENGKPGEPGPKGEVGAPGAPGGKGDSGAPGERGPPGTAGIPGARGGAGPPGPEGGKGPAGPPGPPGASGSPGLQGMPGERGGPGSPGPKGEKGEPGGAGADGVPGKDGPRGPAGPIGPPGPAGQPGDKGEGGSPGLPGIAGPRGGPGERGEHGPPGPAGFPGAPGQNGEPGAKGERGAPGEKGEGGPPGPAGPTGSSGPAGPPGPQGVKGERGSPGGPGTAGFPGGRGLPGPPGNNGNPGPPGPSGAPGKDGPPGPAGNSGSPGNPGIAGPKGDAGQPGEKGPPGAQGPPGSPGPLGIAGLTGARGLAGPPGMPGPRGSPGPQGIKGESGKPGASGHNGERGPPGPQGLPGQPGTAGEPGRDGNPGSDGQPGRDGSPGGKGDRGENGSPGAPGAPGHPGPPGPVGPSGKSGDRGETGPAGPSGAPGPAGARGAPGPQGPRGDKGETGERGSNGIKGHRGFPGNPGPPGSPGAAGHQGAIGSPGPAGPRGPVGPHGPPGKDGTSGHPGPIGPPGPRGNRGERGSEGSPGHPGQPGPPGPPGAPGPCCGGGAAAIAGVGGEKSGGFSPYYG

[2] = 20 MHz, 37 °C, cited from earlier work
Description: Table 1 Relaxivities of monomeric and tetrameric probes bearing CBP1 and CBP2 peptide moieties, in PBS and 0.6 mM human serum albumin (HAS) at 20 MHz and 37 °C | column: r1 mM (mM^−1 s^−1) / PBS; r1 mM (mM^−1 s^−1) / HSA 0.6 mM || To further characterise the molecular characteristics of these probes, the ^1H nuclear magnetic relaxation dispersion profiles (^1H-NMRD) of Gd-DOTAMA-CBP1, Gd-DOTAMA-CBP2 and [Gd-DOTAMA]4-CBP1 were acquired in phosphate buffer saline (PBS) and in 0.6 mM human serum albumin (HSA), at 25 and 37 °C (Supplementary Fig. 3a–c). The profiles obtained were characteristic of small-molecular weight (MW) complexes, even when in the presence of HSA. Table 1 summarises the relaxivity values at 20 MHz and 37 °C, for all probes and for Gadovist[45] a nonpeptide-based (non-targeted) clinically approved contr ...

COL3 [3] = target: T2, COL3 (Homo sapiens, UniProt P02461); test: Eu(III) time resolved fluorescence (TRF) plate binding assay on immobilised COL3; details: immobilised COL3, probe up to 15 µM
T2 sequence (P02461 154-1221 limits assumed): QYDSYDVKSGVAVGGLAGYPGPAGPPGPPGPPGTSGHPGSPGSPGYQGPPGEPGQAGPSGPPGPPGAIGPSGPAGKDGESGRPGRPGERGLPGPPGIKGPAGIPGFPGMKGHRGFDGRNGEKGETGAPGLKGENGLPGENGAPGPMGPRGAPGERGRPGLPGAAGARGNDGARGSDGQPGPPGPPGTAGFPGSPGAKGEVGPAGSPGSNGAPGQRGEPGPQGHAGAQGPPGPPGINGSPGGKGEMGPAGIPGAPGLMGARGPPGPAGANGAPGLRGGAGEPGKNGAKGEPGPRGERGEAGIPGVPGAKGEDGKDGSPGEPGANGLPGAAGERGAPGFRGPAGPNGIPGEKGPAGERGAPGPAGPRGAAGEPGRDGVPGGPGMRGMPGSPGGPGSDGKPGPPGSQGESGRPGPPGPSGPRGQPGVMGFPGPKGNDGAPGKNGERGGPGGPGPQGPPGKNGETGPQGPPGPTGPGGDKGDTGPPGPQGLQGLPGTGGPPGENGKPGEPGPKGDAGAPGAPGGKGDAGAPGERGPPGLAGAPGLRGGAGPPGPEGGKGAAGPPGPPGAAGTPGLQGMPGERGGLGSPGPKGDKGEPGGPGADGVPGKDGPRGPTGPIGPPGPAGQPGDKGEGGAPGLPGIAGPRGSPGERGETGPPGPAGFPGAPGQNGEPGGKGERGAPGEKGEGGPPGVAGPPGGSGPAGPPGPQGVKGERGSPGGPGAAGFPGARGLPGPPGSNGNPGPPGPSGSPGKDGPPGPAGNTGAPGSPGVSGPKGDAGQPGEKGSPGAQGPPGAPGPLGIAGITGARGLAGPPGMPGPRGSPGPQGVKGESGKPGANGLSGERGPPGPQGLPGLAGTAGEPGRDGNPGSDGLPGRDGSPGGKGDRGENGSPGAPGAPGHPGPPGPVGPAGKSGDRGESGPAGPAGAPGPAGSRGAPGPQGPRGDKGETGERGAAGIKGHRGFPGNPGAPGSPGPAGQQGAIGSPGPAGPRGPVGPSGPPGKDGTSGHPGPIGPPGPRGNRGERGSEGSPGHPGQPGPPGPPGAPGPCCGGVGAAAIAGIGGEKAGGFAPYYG
Description: The protocol to assess the binding affinity of the Eu(III)-labelled collagen probes to COL3 has been optimised previously. Such an assay is based on the Eu(III) TRF which detects the amount of Eu(III)-labelled probes that bind to COL3 immobilised on a multi-well plate. The assay was used to measure the COL3 binding affinity of the monomeric Eu(III)-labelled probes (expressed as the dissociation constant, Kd). The same assay was carried out with COL1, to estimate the selectivity for COL3 binding in respect to COL1. Potential unspecific binding effects associated with the assay were investigated by using two types of control experiments: (i) the scrambled versions of the Eu(III)-labelled probes were used as negative controls in TRF plate assays with immobilised collagen (either COL3 or COL1); and (ii) the collagen specific probes were assayed against elastin and bovine serum albumin (BSA) as control non-binding proteins. Briefly, increasing concentrations of the peptide (0.1–15 µM; 70 µL per well) were incubated in 96-well microplates pre-coated with the desired protein. Triplicate readings were taken per concentration and three independent experiments (plates) were used. After incubation of the peptide with the protein for one hour, the plates were washed with PBS to remove any free (unbound) peptide. […] The plates were then read using a luminescence plate reader. […]

Row | signal enhancement in the infarct, both timepoints after MI (in words) (COL3 [1]) | fractional occupancy (FO) at the highest concentration of probe (COL3 [3]) [%] | Structure (SMILES) | r1 in PBS ([2]; column PBS) [mM⁻¹ s⁻¹] | r1 (column HSA 0.6 mM) ([2]; in non-sterile bovine plasma (albumin 0.64 to 0.82 mmol/L))
1 | No enhancement |  | O=C([O-])CN1CCN(CC(=O)[O-])CCN([C@H](CO)[C@H](O)CO)CCN(CC(=O)[O-])CC1.[Gd+3] (racemic) [Gadovist] | 3.7 | 6.1* mM^−1 s^−1
2 |  | 74 | CC(C)[C@H](NC(=O)[C@H](CCC(=O)O)NC(=O)[C@H](CO)NC(=O)[C@H](CCCCN)NC(=O)[C@H](CCCNC(=N)N)NC(=O)[C@H](C)NC(=O)[C@H](CC(=O)O)NC(=O)CN1CCN(CC(=O)O)CCN(CC(=O)O)CCN(CC(=O)O)CC1)C(=O)N[C@@H](CCC(N)=O)C(=O)N[C@@H](CCCCN)C(=O)O [Eu-DOTAMA-CBP1] ({DOTA}-DARKSEVQK-OH) |  | 
